Data: US20240246908A1 (ORION CORPORATION, priority 2021, published 2024)

Tested on: YAP-TEAD
Assay: TEAD inhibition, Hippo Pathway TEAD Reporter MCF-7 luciferase assay
Assay type: cell-based
Details: Homo sapiens, MCF7, 24 h, Hippo Pathway TEAD Reporter MCF-7 cells, luciferase activity after 24 h; read-out: IC50 of the test compounds on YAP-TEAD inhibition (Group)
Outline: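 IC50 derived from ONE-Glo luciferase luminescence after 24 h compound exposure (11 concentrations in quadruplicate, 0.1% DMSO control). Reporter: MCF-7 line expressing firefly luciferase under TEAD elements, constitutively activated by nuclear YAP1.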

Structure (SMILES) | IC50 [nM]
COc1ccc(Oc2ccc(C(F)(F)F)cc2)cc1NC(=O)C1CCC(=O)N1C(=O)C1CCC(=O)N1 (centres unmarked) [Compound 229, N-(2-Methoxy-5-(4-(trifluoromethyl)phenoxy)phenyl)-5-oxo-1-(5-oxopyrrolidine-2-carbonyl)pyrrolidine-2-carboxamide] | < 50
COc1ccc(Oc2ccc(C(F)(F)F)cc2)cc1NC(=O)C1CCC(=O)N1C(=O)C1CCC(=O)N1C (centres unmarked) [Compound 230, N-(2-Methoxy-5-(4-(trifluoromethyl)phenoxy)phenyl)-1-(1-methyl-5-oxo-pyrrolidine-2-carbonyl)-5-oxopyrrolidine-2-carboxamide] | < 50
COc1ccc(Oc2ccc(C(F)(F)F)cc2)cc1NC(=O)C1CCC(=O)N1C(=O)C1CC(=O)N1 (centres unmarked) [Compound 231, N-(2-Methoxy-5-(4-(trifluoromethyl)phenoxy)phenyl)-5-oxo-1-(4-oxoazetidine-2-carbonyl)pyrrolidine-2-carboxamide] | < 50
COc1ccc(Oc2ccc(F)c(F)c2)cc1NC(=O)C1CCC(=O)N1C(=O)C1CC(=O)N1 (centres unmarked) [Compound 232, N-(5-(3,4-difluorophenoxy)-2-methoxyphenyl)-5-oxo-1-(4-oxoazetidine-2-carbonyl)pyrrolidine-2-carboxamide] | 50 to 300
CN1C(=O)CCC1C(=O)Nc1cc(Oc2cccc(C(F)(F)F)c2)cc2c1OCCO2 (centres unmarked) [Compound 233, 1-Methyl-5-oxo-N-(7-(3-(trifluoromethyl)phenoxy)-2,3-dihydrobenzo[b][1,4]dioxin-5-yl)pyrrolidine-2-carboxamide] | 50 to 300
Cc1c(Oc2cccc(C(F)(F)F)c2)cc(NC(=O)C2CCC(=O)N2C)c2c1OCCO2 (centres unmarked) [Compound 236, 1-Methyl-N-(8-methyl-7-(3-(trifluoromethyl)phenoxy)-2,3-dihydrobenzo[b]-[1,4]dioxin-5-yl)-5-oxopyrrolidine-2-carboxamide] | 301 to 2000
CN1C(=O)CCC1C(=O)Nc1cc(Oc2ccc(C(F)(F)F)cc2)cc2c1OCC2 (centres unmarked) [Compound 237, 1-Methyl-5-oxo-N-(5-(4-(trifluoromethyl)phenoxy)-2,3-dihydrobenzofuran-7-yl)pyrrolidine-2-carboxamide] | < 50
CN1C(=O)CCC1C(=O)Nc1cc(OCc2cccc(C(F)(F)F)c2)cc2c1OCC2 (centres unmarked) [Compound 238, 1-Methyl-5-oxo-N-(5-((3-(trifluoromethyl)benzyl)oxy)-2,3-dihydrobenzofuran-7-yl)pyrrolidine-2-carboxamide] | 50 to 300
CN1C(=O)CCC1C(=O)Nc1cc(Oc2ccc(F)c(F)c2)cc2c1OCC2 (centres unmarked) [Compound 239, N-(5-(3,4-Difluorophenoxy)-2,3-dihydrobenzofuran-7-yl)-1-methyl-5-oxopyrro-lidine-2-carboxamide] | < 50
CN1C(=O)CCC1C(=O)Nc1cc(Oc2ccc(F)c(F)c2)cc2c1OCCO2 (centres unmarked) [Compound 240, N-(7-(3,4-Difluorophenoxy)-2,3-dihydrobenzo[b][1,4]dioxin-5-yl)-1-methyl-5-oxopyrrolidine-2-carboxamide] | < 50
CN1C(=O)CCC1C(=O)Nc1cc(Oc2ccc(F)cc2)cc2c1OCCO2 (centres unmarked) [Compound 241, N-(7-(4-Fluorophenoxy)-2,3-dihydrobenzo[b][1,4]dioxin-5-yl)-1-methyl-5-oxo-pyrrolidine-2-carboxamide] | 50 to 300
CN1C(=O)CCC1C(=O)Nc1cc(COc2ccc(F)c(F)c2)cc2c1OCC2 (centres unmarked) [Compound 242, N-(5-((3,4-Difluorophenoxy)methyl)-2,3-dihydrobenzofuran-7-yl)-1-methyl-5-oxopyrrolidine-2-carboxamide] | 50 to 300
CN1C(=O)CCC1C(=O)Nc1cc(COc2ccc(F)c(F)c2)cc2c1CCO2 (centres unmarked) [Compound 243, N-(6-((3,4-Difluorophenoxy)methyl)-2,3-dihydrobenzofuran-4-yl)-1-methyl-5-oxopyrrolidine-2-carboxamide] | 301 to 2000
CN1C(=O)CCC1C(=O)Nc1cc(Oc2ccc(C(F)(F)F)cn2)cc2c1ncn2C (centres unmarked) [Compound 244, 1-Methyl-N-(1-methyl-6-((5-(trifluoromethyl)pyridin-2-yl)oxy)-1H-benzo-[d]imidazol-4-yl)-5-oxopyrrolidine-2-carboxamide] | 50 to 300
COc1ccc(CNc2cccc(F)c2)cc1NC(=O)C1CCC(=O)N1 (centres unmarked) [Compound 246, N-(5-(((3-Fluorophenyl)amino)methyl)-2-methoxyphenyl)-5-oxopyrrolidine-2-carboxamide] | 301 to 2000
COc1ccc(OC2CCC(F)(F)CC2)cc1NC(=O)C1CCC(=O)N1C (centres unmarked) [Compound 247, N-(5-((4,4-Difluorocyclohexyl)oxy)-2-methoxyphenyl)-1-methyl-5-oxopyrrolidine-2-carboxamide] | 50 to 300
CN1C(=O)CCC1C(=O)Nc1cc(OCc2ccc(F)c(F)c2)cc2c1OCC2 (centres unmarked) [Compound 248, N-(5-((3,4-Difluorobenzyl)oxy)-2,3-dihydrobenzofuran-7-yl)-1-methyl-5-oxopyrrolidine-2-carboxamide] | < 50
CN1C(=O)CCC1C(=O)Nc1cc(COc2cccc(F)c2)cc2ccoc12 (centres unmarked) [Compound 249, N-(5-((3-Fluorophenoxy)methyl)benzofuran-7-yl)-1-methyl-5-oxopyrrolidine-2-carboxamide] | 50 to 300
COc1cc(Oc2ccc(F)c(F)c2)cc(NC(=O)C2CCC(=O)N2C)c1F (centres unmarked) [Compound 251, N-(5-(3,4-difluorophenoxy)-2-fluoro-3-methoxyphenyl)-1-methyl-5-oxopyrro-lidine-2-carboxamide] | 301 to 2000
COc1ccc(Oc2ccc(C(F)(F)F)cc2)cc1NC(=O)C12CCC(=O)N1CCS2(=O)=O (centres unmarked) [Compound 252, N-(2-Methoxy-5-(4-(trifluoromethyl)phenoxy)phenyl)-5-oxotetrahydropyrrolo[2,1-b]thiazole-7a(5H)-carboxamide 1,1-dioxide] | 301 to 2000
COc1cc(NC(=O)C2CCC(=O)N2)cc(Oc2ccc(C(F)(F)F)cc2)c1 (centres unmarked) [Compound 253, N-(3-Methoxy-5-(4-(trifluoromethyl)phenoxy)phenyl)-5-oxopyrro-lidine-2-carboxamide] | < 50
COc1ccc(/C=C/c2cccc(F)c2)cc1NC(=O)C1CCC(=O)N1C (centres unmarked) [Compound 254, (E)-N-(5-(3-Fluorostyryl)-2-methoxyphenyl)-1-methyl-5-oxopyrrolidine-2-carboxamide] | 50 to 300
COc1ccc(OC2CCC(C(F)(F)F)CC2)cc1NC(=O)C1CCC(=O)N1C (centres unmarked) [Compound 255, N-(2-Methoxy-5-((4-(trifluoromethyl)cyclohexyl)oxy)phenyl)-1-methyl-5-oxo-pyrrolidine-2-carboxamide] | < 50
COc1ccc(Cc2cccc(C(F)(F)F)c2)cc1NC(=O)C1CCC(=O)N1C (centres unmarked) [Compound 256, N-(2-Methoxy-5-(3-(trifluoromethyl)benzyl)phenyl)-1-methyl-5-oxopyrrolidine-2-carboxamide] | 50 to 300
COc1ccc(Cc2ccc(C(F)(F)F)cc2)cc1NC(=O)C1CCC(=O)N1C (centres unmarked) [Compound 257, N-(2-Methoxy-5-(4-(trifluoromethyl)benzyl)phenyl)-1-methyl-5-oxopyrrolidine-2-carboxamide] | 50 to 300
CN1C(=O)CCC1C(=O)Nc1cc(Oc2ccc(C(F)(F)F)cc2)ccc1Cl (centres unmarked) [Compound 258, N-(2-Chloro-5-(4-(trifluoromethyl)phenoxy)phenyl)-1-methyl-5-oxopyrrolidine-2-carboxamide] | 50 to 300
